Measurements taken from patent US9550747B2, “Dapagliflozin crystalline form and preparation method thereof” (Jiangsu Hansoh Pharmaceutical Group Co., Ltd., priority 2014, dated 2017).
Like-named read-outs stand apart in the source and are kept apart here. Values belong to the molecule of their own block, whether it stands above or below them.

What was measured:
[1] = 21° C.±2° C./RH 45%±5%
Experimental: (§1) The crystal resulting from Example 1 was placed under acceleration conditions for 6 months.
Conditions: 21° C.±2° C./RH 45%±5%
(§2) Package: Two layers of low density polyethylene bag for medicinal use were sealed by hot-melt respectively, and desiccant was added. The bag was sealed and packaged with a pharmaceutical composite film bag of polyester/aluminum/polyamide/cast polypropylene.

[2] = 30° C.±2° C./RH 65%±5%
Experimental: as §1
Conditions: 30° C.±2° C./RH 65%±5%
as §2

[3] = not given; remark: listed apart in the source

HPLC Identification ([1]; 3 Months): accordance | Moisture Content (%) ([1]; 3 Months): 0.77% | Related Substances Maximum Single Impurity (%) ([1]; 3 Months): 0.03% | Related Substances Total Impurity (%) ([1]; 3 Months): 0.11% | Specific Rotation ([1]; 3 Months): +13.1° | Total Content (%) ([1]; 3 Months): 99.8% | XRPD ([1]; 3 Months): accordance | HPLC Identification ([1]; 6 Months): accordance | Moisture Content (%) ([1]; 6 Months): 0.80% | Related Substances Maximum Single Impurity (%) ([1]; 6 Months): 0.03% | Related Substances Total Impurity (%) ([1]; 6 Months): 0.13% | Specific Rotation ([1]; 6 Months): +12.9° | Total Content (%) ([1]; 6 Months): 99.5% | XRPD ([1]; 6 Months): accordance | quality indicators of the sample ([1]; 6 Months): did not change significantly | HPLC Identification ([1]; time 0): accordance | Moisture Content (%) ([1]; time 0): 0.76% | Related Substances Maximum Single Impurity (%) ([1]; time 0): 0.04% | Related Substances Total Impurity (%) ([1]; time 0): 0.11% | Specific Rotation ([1]; time 0): +13.3° | Total Content (%) ([1]; time 0): 99.4% | XRPD ([1]; time 0): accordance | hygroscope (High humidity test 25° C./RH 75%, day 5): 4.83% | hygroscope (High humidity test 25° C./RH 75%, day 10): 4.84% | hygroscope (High humidity test 25° C./RH 95%, day 5): 6.09% | hygroscope (High humidity test 25° C./RH 95%, day 10): 6.71% | HPLC Identification ([2]; 1 Month): accordance | Moisture Content (%) ([2]; 1 Month): 0.82% | Related Substances Maximum Single Impurity (%) ([2]; 1 Month): 0.03% | Related Substances Total Impurity (%) ([2]; 1 Month): 0.10% | Specific Rotation ([2]; 1 Month): +13.2° | Total Content (%) ([2]; 1 Month): 99.6% | XRPD ([2]; 1 Month): accordance | HPLC Identification ([2]; 2 Months): accordance | Moisture Content (%) ([2]; 2 Months): 0.81% | Related Substances Maximum Single Impurity (%) ([2]; 2 Months): 0.03% | Related Substances Total Impurity (%) ([2]; 2 Months): 0.11% | Specific Rotation ([2]; 2 Months): +13.0° | Total Content (%) ([2]; 2 Months): 99.7% | XRPD ([2]; 2 Months): accordance | HPLC Identification ([2]; 3 Months): accordance | Moisture Content (%) ([2]; 3 Months): 0.77% | Related Substances Maximum Single Impurity (%) ([2]; 3 Months): 0.03% | Related Substances Total Impurity (%) ([2]; 3 Months): 0.10% | Specific Rotation ([2]; 3 Months): +13.4° | Total Content (%) ([2]; 3 Months): 99.3% | XRPD ([2]; 3 Months): accordance | HPLC Identification ([2]; 6 Months): accordance | Moisture Content (%) ([2]; 6 Months): 0.81% | Related Substances Maximum Single Impurity (%) ([2]; 6 Months): 0.03% | Related Substances Total Impurity (%) ([2]; 6 Months): 0.13% | Specific Rotation ([2]; 6 Months): +13.3° | Total Content (%) ([2]; 6 Months): 99.5% | XRPD ([2]; 6 Months): accordance | quality indicators of the sample ([2]; 6 Months): did not change significantly | HPLC Identification ([2]; time 0): accordance | Moisture Content (%) ([2]; time 0): 0.76% | Related Substances Maximum Single Impurity (%) ([2]; time 0): 0.04% | Related Substances Total Impurity (%) ([2]; time 0): 0.11% | Specific Rotation ([2]; time 0): +13.3° | Total Content (%) ([2]; time 0): 99.4% | XRPD ([2]; time 0): accordance
SMILES: CCOc1ccc(Cc2cc([C@@H]3O[C@H](CO)[C@@H](O)[C@H](O)[C@H]3O)ccc2Cl)cc1 [Example 1, 2-chloro-5-(β-D-glucopyranosyl-1-yl)-4′-ethoxy-diphenylmethane]

transformation of the crystal (XRPD) ([3]; after grinding): does not result in transformation | transformation of the crystal (XRPD) ([3]; after pressing into a tablet, FIG. 2): no transformation
SMILES: CCOc1ccc(Cc2cc([C@@H]3O[C@H](CO)[C@@H](O)[C@H](O)[C@H]3O)ccc2Cl)cc1 [crystal of the present invention, 2-chloro-5-(β-D-glucopyranosyl-1-yl)-4′-ethoxy-diphenylmethane]
